Here are results for two molecules from PMC10770617, “27-Hydroxylation of oncosterone by CYP27A1 switches its activity from pro-tumor to anti-tumor” (Journal of Lipid Research, 2023).

For orientation: inhibition means the drop in the measured response relative to a control, in per cent. A low value points to little suppression. Usually Ki stands for the equilibrium dissociation constant of an inhibitor or competing ligand from its target. A higher Ki goes with lower affinity.

One assay deals with T1, CYP27A1 (Homo sapiens, UniProt Q02318).
T1 construct: endogenous, MDA-231 and HepG2 cells
T1 sequence (Q02318 34-531): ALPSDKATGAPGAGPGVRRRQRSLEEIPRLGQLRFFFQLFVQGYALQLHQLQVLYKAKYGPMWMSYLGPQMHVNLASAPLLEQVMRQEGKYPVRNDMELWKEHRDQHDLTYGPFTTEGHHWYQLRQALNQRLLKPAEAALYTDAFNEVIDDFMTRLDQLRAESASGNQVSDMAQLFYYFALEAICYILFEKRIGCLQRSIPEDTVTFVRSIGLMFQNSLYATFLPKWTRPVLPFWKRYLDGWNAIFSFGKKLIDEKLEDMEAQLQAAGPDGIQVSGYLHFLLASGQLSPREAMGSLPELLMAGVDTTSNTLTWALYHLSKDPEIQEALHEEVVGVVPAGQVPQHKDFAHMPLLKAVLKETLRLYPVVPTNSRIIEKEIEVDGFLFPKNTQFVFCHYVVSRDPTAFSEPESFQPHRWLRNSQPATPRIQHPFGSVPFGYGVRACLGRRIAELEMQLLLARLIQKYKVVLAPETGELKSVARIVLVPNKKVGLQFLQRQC
As to the kind of experiment: inhibition of 27-hydroxylation of […]-CT in cells at […] (TLC); about […] (MDA-231) and […] (HepG2) reduction. Type of assay: cell-based.

For assay [1], the target named is T2, HSD2 (11β-hydroxysteroid dehydrogenase type 2) (Homo sapiens, UniProt P80365).
T2 construct: gene HSD11B2; recombinant HSD2 (pCMV6-XL5 HSD2, SC122552) in HEK-293T cell lysate
T2 sequence (P80365 1-405): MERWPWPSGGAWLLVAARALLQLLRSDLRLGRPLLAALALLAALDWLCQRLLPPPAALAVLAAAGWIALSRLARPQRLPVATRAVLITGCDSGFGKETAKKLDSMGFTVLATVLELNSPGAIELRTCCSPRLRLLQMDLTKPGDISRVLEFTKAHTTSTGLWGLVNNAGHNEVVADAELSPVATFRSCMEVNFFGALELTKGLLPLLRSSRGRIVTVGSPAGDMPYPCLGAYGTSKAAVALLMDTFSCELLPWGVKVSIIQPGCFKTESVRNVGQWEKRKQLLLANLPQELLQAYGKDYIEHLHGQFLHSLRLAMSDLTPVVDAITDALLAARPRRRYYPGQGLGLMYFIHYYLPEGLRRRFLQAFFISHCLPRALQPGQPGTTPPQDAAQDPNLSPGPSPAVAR
As to the kind of experiment: inhibition of […]-CT to […]-OCDO conversion in HSD2-transfected HEK-293T lysate (TLC), Lineweaver-Burk and Dixon analysis. Type of assay: biochemical.

Molecule `CC(O)(CS(=O)(=O)c1ccc(F)cc1)C(=O)Nc1ccc(C#N)c(C(F)(F)F)c1` (centres unmarked) [bicalutamide] registered an inhibition at 10 µM on CYP27A1 of approximately 60%.

Consider `C[C@@H](CO)CCC[C@@H](C)[C@H]1CC[C@H]2[C@@H]3C[C@@H](O)[C@@]4(O)C[C@@H](O)CC[C@]4(C)[C@H]3CC[C@]12C` [27H-CT, (25R)-cholestane-3β,5α,6β,26-tetrol], for which the inhibitory constant (Ki) in assay [1] is 2300 nM.
